The values below come from patent publication US20210198277A1, “AMINE-SUBSTITUTED ARYL OR HETEROARYL COMPOUNDS” (Epizyme, Inc., priority 2016, published 2021).

The IC50 is the concentration needed to halve the response being measured.

The target of this assay is T1, EHMT2 (Homo sapiens, UniProt Q96KQ7).
T1 construct: host or cells: MDA-MB-231
T1 sequence (Q96KQ7 1-1210): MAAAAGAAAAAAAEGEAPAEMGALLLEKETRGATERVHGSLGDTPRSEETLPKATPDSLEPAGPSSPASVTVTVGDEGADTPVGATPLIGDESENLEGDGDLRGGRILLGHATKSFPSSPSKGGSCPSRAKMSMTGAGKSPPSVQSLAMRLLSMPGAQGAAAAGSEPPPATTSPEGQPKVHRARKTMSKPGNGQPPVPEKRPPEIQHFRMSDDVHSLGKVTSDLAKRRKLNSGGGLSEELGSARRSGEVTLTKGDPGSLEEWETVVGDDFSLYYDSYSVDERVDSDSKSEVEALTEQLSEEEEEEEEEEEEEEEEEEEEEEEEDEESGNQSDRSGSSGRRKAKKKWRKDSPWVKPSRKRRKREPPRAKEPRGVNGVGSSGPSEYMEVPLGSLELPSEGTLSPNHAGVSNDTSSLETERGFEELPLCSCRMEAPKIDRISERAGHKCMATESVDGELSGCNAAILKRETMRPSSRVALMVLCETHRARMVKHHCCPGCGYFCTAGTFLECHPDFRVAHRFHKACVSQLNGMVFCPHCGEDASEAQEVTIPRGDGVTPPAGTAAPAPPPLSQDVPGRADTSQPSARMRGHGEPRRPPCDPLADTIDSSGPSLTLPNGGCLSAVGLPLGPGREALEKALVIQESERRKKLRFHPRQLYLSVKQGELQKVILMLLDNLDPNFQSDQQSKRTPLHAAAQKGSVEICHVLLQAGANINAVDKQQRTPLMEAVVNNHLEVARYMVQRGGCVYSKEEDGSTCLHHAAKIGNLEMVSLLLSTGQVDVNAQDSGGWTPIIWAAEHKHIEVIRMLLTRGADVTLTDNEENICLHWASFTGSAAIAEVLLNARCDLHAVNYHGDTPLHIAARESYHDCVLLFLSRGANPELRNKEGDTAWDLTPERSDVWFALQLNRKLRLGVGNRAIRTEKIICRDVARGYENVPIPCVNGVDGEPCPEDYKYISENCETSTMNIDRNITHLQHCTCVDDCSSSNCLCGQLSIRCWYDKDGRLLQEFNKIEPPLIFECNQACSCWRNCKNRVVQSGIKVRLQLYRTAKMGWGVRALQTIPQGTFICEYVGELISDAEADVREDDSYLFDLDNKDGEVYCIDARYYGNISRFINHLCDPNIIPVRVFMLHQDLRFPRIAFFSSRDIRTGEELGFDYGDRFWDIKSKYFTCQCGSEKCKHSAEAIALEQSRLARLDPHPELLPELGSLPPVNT
Nature of the assay: MDA-MB-231 H3K9me2 in-cell Western assay (EHMT2 ICW). The following applies: Table III; MDA-MB-231 H3K9me2 in-cell Western; read-out: EHMT2 ICW (IC50 μM). The format is cell-based. A digest of the protocol:
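Infrared read-out at 800 and 700 nm (H3K9me2 antibody vs DRAQ5 DNA stain) of fixed MDA-MB-231 cells after 48 h compound treatment at 37 °C. Well ratios were converted to percent inhibition, and IC50 was obtained by variable-slope nonlinear regression on triplicates.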

Structures are written as SMILES.

In the case of `CNc1ccnc(Nc2ccc(OC)c(OCCCN3CCC3C)c2)n1` (centres unmarked) [Compound 429, N^2-(4-methoxy-3-(3-(2-methylazetidin-1-yl)propoxy)phenyl)-N^4-methylpyrimidine-2,4-diamine], the concentration for half-maximal inhibition (IC50) was in the range of 1 to 10 µM. For the molecule `CNc1cc(C)nc(Nc2ccc(OC)c(OCCOC)c2)n1` [Compound 311, N^2-(4-methoxy-3-(2-methoxyethoxy)phenyl)-N^4,6-dimethylpyrimidine-2,4-diamine], the IC50 was more than 10 µM. As for `CNc1ccnc(Nc2ccc(OC)c(OCCCN3CC4CC4C3)c2)n1` (centres unmarked) [Compound 298, N^2-(3-(3-(3-azabicyclo[3.1.0]hexan-3-yl)propoxy)-4-methoxyphenyl)-N^4-methylpyrimidine-2,4-diamine], the IC50 lay within 0.1 to 1 µM.

In the case of `CNc1cc(C)nc(Nc2cc(OCCCN3CCCC3)c(OC)cn2)c1` [Compound 307, N^2-(5-methoxy-4-(3-(pyrrolidin-1-yl)propoxy)pyridin-2-yl)-N^4,6-dimethylpyridine-2,4-diamine], the IC50 lay within 0.1 to 1 µM. For the molecule `COc1ccc(Nc2nc(C)cc(NCC3CCOCC3)n2)cc1OCC1CCN(C)C1` (centres unmarked) [Compound 451, N^2-(4-methoxy-3-((1-methylpyrrolidin-3-yl)methoxy)phenyl)-6-methyl-N^4-((tetrahydro-2H-pyran-4-yl)methyl)pyrimidine-2,4-diamine], the IC50 was 1 to 10 µM. Take `CNc1ccnc(Nc2ccc(OC)c(OCc3cc(C4CC4)on3)c2)n1` [Compound 426, N^2-(3-((5-cyclopropylisoxazol-3-yl)methoxy)-4-methoxyphenyl)-N^4-methylpyrimidine-2,4-diamine]: the IC50 is more than 10 µM. For the molecule `CNc1ccnc(Nc2ccc(OC)c(OCCCN3CCC(C)C3)c2)n1` (centres unmarked) [Compound 293, N^2-(4-methoxy-3-(3-(3-methylpyrrolidin-1-yl)propoxy)phenyl)-N^4-methylpyrimidine-2,4-diamine], the IC50 was 1 to 10 µM. Consider `CNc1ccnc(Nc2ccc(OC)c(OCc3cn(C4CC4)nn3)c2)n1` [Compound 434, N^2-(3-((1-cyclopropyl-1H-1,2,3-triazol-4-yl)methoxy)-4-methoxyphenyl)-N^4-methylpyrimidine-2,4-diamine], for which the IC50 is more than 10 µM.
